Assay: xn = mol fraction of the nth substance listed
Conditions: for kinematic viscosity: Liquid, Surface laser light scattering (SLLS)

C=C(F)C(F)(F)F [2,3,3,3-tetrafluoro-1-propene] + FCC(F)(F)F
Conditions | kinematic viscosity [m2/s] | surface tension liquid-gas [mN/m]
293.15 K, x2 = 0.807 | 1.62e-07 | 8.25
293.2 K, x2 = 0.6018 | 1.61e-07 | 7.8
293.22 K, x2 = 0.3196 | 1.49e-07 | 7.38
303.13 K, x2 = 0.6018 | 1.43e-07 | 6.59
303.15 K, x2 = 0.807 | 1.47e-07 | 6.99
303.21 K, x2 = 0.3196 | 1.35e-07 | 6.14
313.12 K, x2 = 0.3196 | 1.25e-07 | 4.93
313.15 K, x2 = 0.6018 | 1.29e-07 | 5.41
323.1 K, x2 = 0.3196 | 1.15e-07 | 3.95
323.15 K, x2 = 0.807 | 1.26e-07 | 4.55
323.16 K, x2 = 0.6018 | 1.22e-07 | 4.24
333.12 K, x2 = 0.6018 | 1.12e-07 | 3.15
333.15 K, x2 = 0.807 | 1.13e-07 | 3.41
333.16 K, x2 = 0.3196 | 1.07e-07 | 2.87
343.14 K, x2 = 0.807 | 1.04e-07 | 2.39
343.16 K, x2 = 0.6018 | 1e-07 | 2.11
343.19 K, x2 = 0.3196 | 9.77e-08 | 1.88
353.1 K, x2 = 0.807 | 9.22e-08 | 1.31
353.16 K, x2 = 0.3196 | 8.7e-08 | 1
353.19 K, x2 = 0.6018 | 8.9e-08 | 1.17
358.15 K, x2 = 0.3196 | 8.36e-08 | 0.6
363.16 K, x2 = 0.807 | 8.21e-08 | 0.53
363.19 K, x2 = 0.6018 | 7.95e-08 | 0.37

F/C=C/C(F)(F)F [trans-1,3,3,3-tetrafluoropropene] + FCC(F)(F)F
x2 = 0.4446
Conditions | kinematic viscosity [m2/s] | surface tension liquid-gas [mN/m]
293.1 K | 1.78e-07 | 8.89
303.16 K | 1.62e-07 | 7.58
313.12 K | 1.45e-07 | 6.34
323.11 K | 1.3e-07 | 5.16
333.14 K | 1.21e-07 | 3.98
343.14 K | 1.12e-07 | 2.92
353.1 K | 1.02e-07 | 1.92
363.1 K | 9e-08 | 1.01
369.15 K | 8.63e-08 | 0.53
